Assay [1] concerns the target KRAS^G12D mutant protein binding to RBD region fragment of RAF1 protein (Homo sapiens (Human), UniProt P01116, G12D). Kind of assay: KRAS-RAF1 binding assay (HTRF), KRAS G12D. The note with it: His-KRAS^G12D, GST-RAF1-RBD, GTP. The protocol:
(§1) GST-RAF1-RBD was purchased from BPS Bioscience; Cat. NO.: 100519; KRAS^G12D was purchased from BPS Bioscience; Cat. NO.: 100623; KRAS^wt was purchased from Reactionbiology; GTP was purchased from Sigma; Cat. NO.: G8877; Mab Anti GST-XL665 was purchased from cisbio; Cat. NO.: 61GSTXLF; Eu-W1024-anti-6×HIS was purchased from PE; Cat. NO.: AD0111; ProxiPlate-384-Plates was purchased from PerkinElmer; Cat. NO.: 6008289; DMSO was purchased from VWR AMRESCO; Cat. NO.: 0231-500ML; microplate reader was purchased from PerkinElmer; Cat. NO.: Envison;
(§2) This experiment is intended to investigate the inhibitory effect of compounds on the binding of KRAS^G12D mutant protein or KRAS^Wt (wild type) protein to fragments of the RBD region fragment of RAF1 protein. A 500×3-fold gradient concentration stock of compound was prepared using DMSO and diluted 50-fold into a 10× stock of compound using reaction buffer. To the reaction wells of an ELISA plate (ProxiPlate-384-Plates), was first added 3 µL of His-KRAS^G12D protein or KRAS^wt protein, then added 1 μL of 200 µM GTP and incubated for 30 min, then added 2 μL of 10× compound or reaction buffer with 2% DMSO (positive control) and incubated for 30 min, then added 4 μL of GST-RAF1-RBD protein or reaction buffer (negative control) and incubated for 15 min, then added […] anti-His antibody and XL665-labeled anti-GST antibody mixed well in advance and incubated for 60 min before reading HTRF signal by microplate reader. The inhibition ratio of compounds on KRAS protein (G12D mutant or wild type) and RAF1 binding was calculated IR (%)=(positive control signal-compound well signal)/(positive control signal-negative control signal)×100% and IC50 values were calculated by fitting compound concentrations and corresponding inhibition ratios using the Prism 8 four-parameter method. […] While the inhibition IC50 values of the compounds on the binding of KRAS^wt (wild type) protein to the RBD region fragment of RAF1 protein was more than 40 nM or 100 nM, or more than 500 nM, or even more than 1 μM or 2 μM.
(Time-resolved FRET reads energy transfer from a long-lived donor to a nearby acceptor.)

In assay [2] the test system is p-ERK in AGS cells (KRAS^G12D mutation). Kind of assay: Cell p-ERK detection assay. It is filed as cell-based, human. The settings on record: 3 h incubation, HTRF. The gist of the method:
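AGS cells (KRAS G12D, ~20,000/well in F12K+10% FBS) treated next day with compound at 3.16-fold dilutions, 0.1% DMSO final, for 3 h. Lysates assayed for ERK phospho-T202/Y204 by HTRF after 4 h; inhibition vs DMSO and blank, IC50 from four-parameter fit.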

Assay [3] concerns AsPC-1 cells (KRAS^G12D mutation). Kind of assay: Cell proliferation inhibition assay (3D, CellTiter-Glo), AsPC-1. The assay is classed as cell-based, human. The note with it: 3D cell model, 5 days. The gist of the method: (§3)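 3D spheroids of AsPC-1 (800 cells/well, RPMI-1640) or AGS (400 cells/well, F-12K), 10% FBS, seeded overnight, then exposed 5 days to 3.16-fold compound dilutions (0.1% DMSO final). CellTiter-Glo 3D luminescence gives inhibition relative to DMSO and medium blanks; IC50 from four-parameter fit.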

Assay [4] deals with KRAS^wt (wild type) protein binding to RBD region fragment of RAF1 protein (Homo sapiens (Human), UniProt P01116). Kind of assay: KRAS-RAF1 binding assay (HTRF), KRAS wild type. The note with it: GST-RAF1-RBD, GTP. How it is done:
as §1, §2

The subject of assay [5] is AGS cells (KRAS^G12D mutation). Kind of assay: Cell proliferation inhibition assay (3D, CellTiter-Glo), AGS. It is filed as cell-based, human. The note with it: 3D cell model, 5 days. Put shortly: as §3
In general terms: Cellular ATP, detected with luciferase, serves as a proxy for viable cell number.

KRAS^wt (wild type) protein binding to RBD region fragment of RAF1 protein, sequence (P01116-2 other isoform, or with tags, fused parts or gaps): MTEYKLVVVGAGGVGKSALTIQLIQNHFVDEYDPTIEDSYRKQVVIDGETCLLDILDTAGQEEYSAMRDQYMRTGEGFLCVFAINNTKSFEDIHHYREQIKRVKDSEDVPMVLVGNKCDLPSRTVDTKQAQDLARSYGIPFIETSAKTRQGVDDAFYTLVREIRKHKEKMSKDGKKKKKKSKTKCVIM
KRAS^G12D mutant protein binding to RBD region fragment of RAF1 protein, sequence (P01116-2 other isoform, or with tags, fused parts or gaps G12D): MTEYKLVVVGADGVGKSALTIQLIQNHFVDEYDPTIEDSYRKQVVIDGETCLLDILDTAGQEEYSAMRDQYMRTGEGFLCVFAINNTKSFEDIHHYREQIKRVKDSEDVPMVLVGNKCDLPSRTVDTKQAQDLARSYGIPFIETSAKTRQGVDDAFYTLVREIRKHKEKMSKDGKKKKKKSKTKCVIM

The term IC50 denotes the midpoint of a concentration-inhibition curve. Lower therefore signals greater potency in that assay. `C#Cc1cccc2cc(O)cc(-c3ncc4c(N5CC6CCC(C5)N6)nc(OCC56CCCN5CCC(=C)C6)nc4c3F)c12` [Example Z18, 4-(4-((1R,5S)-3,8-diazabicyclo[3.2.1]octan-3-yl)-8-fluoro-2-((7-methylenehexahydroindolin-8a(1H)-yl)methoxy)pyrido[4,3-d]pyrimidin-7-yl)-5-ethynylnaphthalen-2-ol]: the IC50 was 59.4 nM in assay [1]; 7.57 nM in assay [2]; 75.5 nM in assay [3]; above 1000 nM in assay [4]; 45.3 nM in assay [5].

Turning to `C#Cc1cccc2cc(O)cc(-c3ncc4c(N5C[C@H]6C=C[C@@H](C5)N6)nc(OCC56CCCN5CC(F)(F)C6)nc4c3F)c12` (stereo partly drawn) [Example Z15, 4-(4-((1R,5S)-3,8-diazabicyclo[3.2.1]oct-6-en-3-yl)-2-((2,2-difluorotetrahydro-1H-pyrrolizin-7a(5H)-yl)methoxy)-8-fluoropyrido[4,3-d]pyrimidin-7-yl)-5-ethynylnaphthalen-2-ol], the IC50 in assay [1] is 33 nM; in assay [2] (Homo sapiens, AGS, 3 h), 60.7 nM; in assay [3] (Homo sapiens, ASPC1, 120 h), 947 nM; in assay [4] it was above 3000 nM; in assay [5] (Homo sapiens, AGS, 120 h), 194 nM.

With `C#Cc1cccc2cc(O)cc(-c3c(F)cc4c(N5C[C@H]6CC[C@@H](C5)N6)nc(OCC56CCCN5CC(=C)C6)nc4c3F)c12` (stereo partly drawn) [Example Z20], the IC50 is 105 nM in assay [1]; 2.86 nM in assay [2]; 9.3 nM in assay [3]; 110 nM in assay [4]; 7.7 nM in assay [5].

Turning to `C#Cc1cccc2cc(O)cc(-c3ncc4c(N5C[C@H]6CC[C@@H](C5)N6)nc(OCC56CCN5CC(=C)C6)nc4c3F)c12` (stereo partly drawn) [Example Z19, 4-(4-((1R,5S)-3,8-diazabicyclo[3.2.1]octan-3-yl)-8-fluoro-2-((3-methylene-1-azabicyclo[3.2.0]heptan-5-yl)methoxy)pyrido[4,3-d]pyrimidin-7-yl)-5-ethynylnaphthalen-2-ol], the IC50 was 46 nM in assay [1]; 9.03 nM in assay [2] (Homo sapiens, AGS, 3 h); 68.3 nM in assay [3] (Homo sapiens, ASPC1, 120 h); 67.8 nM in assay [4]; 31.7 nM in assay [5] (Homo sapiens, AGS, 120 h).

For `C#Cc1cccc2cc(O)cc(-c3ncc4c(N5C[C@H]6CC[C@@H](C5)N6)nc(OCC56CCCN5CC(=C(C)C)C6)nc4c3F)c12` (stereo partly drawn) [Example Z14, 4-(4-((1R,5S)-3,8-diazabicyclo[3.2.1]octan-3-yl)-8-fluoro-2-((2-(propan-2-ylidene)tetrahydro-1H-pyrrolizin-7a(5H)-yl)methoxy)pyrido[4,3-d]pyrimidin-7-yl)-5-ethynylnaphthalen-2-ol], the concentration for half-maximal inhibition (IC50) in assay [1] is 39.6 nM; in assay [2] (Homo sapiens, AGS, 3 h) it was 10.1 nM; in assay [3] (Homo sapiens, ASPC1, 120 h), 143 nM; in assay [4], 110 nM; in assay [5] (Homo sapiens, AGS, 120 h), 27.4 nM.

Take `C#Cc1c(F)ccc2cc(O)cc(-c3ncc4c(N5C[C@H]6CC[C@@H](C5)N6)nc(OCC56CCCN5CC(=C)C6)nc4c3F)c12` (stereo partly drawn) [Example Z3]: the IC50 was 16.2 nM in assay [1]; 2.11 nM in assay [2]; 16 nM in assay [3]; 64.5 nM in assay [4]; 3 nM in assay [5].

As to `C#Cc1cccc2cc(O)cc(-c3ncc4c(N5C[C@H]6CC[C@@H](C5)N6)nc(OCC56CCCN5CC(=CF)C6)nc4c3F)c12` (stereo partly drawn) [Example Z5, 4-(4-((1R,5S)-3,8-diazabicyclo[3.2.1]octan-3-yl)-8-fluoro-2-((2-(fluoromethylene)tetrahydro-1H-pyrrolizin-7a(5H)-yl)methoxy)pyrido[4,3-d]pyrimidin-7-yl)-5-ethynylnaphthalen-2-ol], the IC50 stood at 36.3 nM in assay [1]; 1.16 nM in assay [2] (Homo sapiens, AGS, 3 h); 29.4 nM in assay [3] (Homo sapiens, ASPC1, 120 h); 43.7 nM in assay [4]; 4.5 nM in assay [5] (Homo sapiens, AGS, 120 h).

As to `C#Cc1c(F)ccc2cc(O)cc(-c3ncc4c(N5C[C@H]6CC[C@@H](C5)N6)nc(OC[C@]56CCCN5CC(=C)C6)nc4c3F)c12` (single isomer, unassigned) [Example Z13], the IC50 in assay [1] was 53.6 nM; in assay [2] (Homo sapiens, AGS, 3 h) it was 11 nM; in assay [3] (Homo sapiens, ASPC1, 120 h) it was 67.2 nM; in assay [4] it was 101 nM; in assay [5] (Homo sapiens, AGS, 120 h) it was 13 nM.

Regarding `C#Cc1cccc2cc(O)cc(-c3ncc4c(N5C[C@H]6CC[C@@H](C5)N6)nc(OCC56CC(=C)CN5CC(F)C6)nc4c3F)c12` (stereo partly drawn) [Example Z17, 4-(4-((1R,5S)-3,8-diazabicyclo[3.2.1]octan-3-yl)-8-fluoro-2-((2-fluoro-6-methylenetetrahydro-1H-pyrrolizine 7a(5H)-yl)methoxy)pyrido[4,3-d]pyrimidin-7-yl)-5-ethynylnaphthalen-2-ol], the IC50 in assay [1] turned out to be 50 nM; in assay [2] (Homo sapiens, AGS, 3 h), 1.16 nM; in assay [3] (Homo sapiens, ASPC1, 120 h), 35.7 nM; in assay [4] it was 64.3 nM; in assay [5] (Homo sapiens, AGS, 120 h), 6.8 nM.

As to `C#Cc1cccc2cc(O)cc(-c3ncc4c(N5C[C@H]6CC[C@@H](C5)N6)nc(OCC56CCCN5CC=C6CC)nc4c3F)c12` (stereo partly drawn) [Example Z16, 4-(4-((1R,5S)-3,8-diazabicyclo[3.2.1]octan-3-yl)-2-((7-ethyl-2,3-dihydro-1H-pyrrolizin-7a(5H)-yl)methoxy)-8-fluoropyrido[4,3-d]pyrimidin-7-yl)-5-ethynylnaphthalen-2-ol], the half-inhibitory concentration (IC50) in assay [1] was 60.7 nM; in assay [2] (Homo sapiens, AGS, 3 h) it was 54.9 nM; in assay [3] (Homo sapiens, ASPC1, 120 h) it was 555 nM; in assay [4] it was above 1000 nM; in assay [5] (Homo sapiens, AGS, 120 h), 92.6 nM.

For the molecule `C#Cc1cccc2cc(O)cc(-c3ncc4c(N5C[C@H]6C=C[C@@H](C5)N6)nc(OC[C@@]56CCCN5C[C@H](F)C6)nc4c3F)c12` [Example Z7, 4-(4-((1R,5S)-3,8-diazabicyclo[3.2.1]oct-6-en-3-yl)-8-fluoro-2-(((2R,7aS)-2-fluorotetrahydro-1H-pyrrolizin-7a(5H)-yl)methoxy)pyrido[4,3-d]pyrimidin-7-yl)-5-ethynylnaphthalen-2-ol], the IC50 worked out at 72.6 nM in assay [1]; 12 nM in assay [2] (Homo sapiens, AGS, 3 h); 433 nM in assay [3] (Homo sapiens, ASPC1, 120 h); 1030 nM in assay [4]; 32.6 nM in assay [5] (Homo sapiens, AGS, 120 h).

`C=C1CN2CCCC2(COc2nc(N3C[C@H]4CC[C@@H](C3)N4)c3cnc(-c4cc(O)cc5cccc(CC)c45)c(F)c3n2)C1` (stereo partly drawn) [Example Z11, 4-(4-((1R,5S)-3,8-diazabicyclo[3.2.1]octan-3-yl)-8-fluoro-2-((2-methylenetetrahydro-1H-pyrrolizin-7a(5H)-yl)methoxy)pyrido[4,3-d]pyrimidin-7-yl)-5-ethylnaphthalen-2-ol]: the IC50 in assay [1] was 45.9 nM; in assay [2] (Homo sapiens, AGS, 3 h) it was 4.91 nM; in assay [3] (Homo sapiens, ASPC1, 120 h), 50.6 nM; in assay [4], 263 nM; in assay [5] (Homo sapiens, AGS, 120 h), 2.5 nM.

Source of the values: patent publication US20240270758A1, “PYRIDINO-OR PYRIMIDO-CYCLIC COMPOUND, PREPARATION METHOD THEREFOR AND MEDICAL USE THEREOF” (Genfleet Therapeutics (Shanghai) Inc., priority 2021, published 2024).
